Data set [1] can be described thus: Emulsion formation of pMDI formulations in HFA propellant (visual). Type of data set: physicochemical. As to conditions: 5% w/w water, 25 μg/50 μl drug; for Comment (emulsion formation): HFA227. How it is done: (§1) Samples were prepared in clear glass formulation vials. The surfactants were added first followed by water then the other components of the formulation were added and the weight of bottle recorded after each addition. Final compositions were calculated as percentage w/w. Valves were crimped onto plastic-coated bottles or anodized aluminium cans before being placed in a sonicator for 5 minutes to allow as much dissolution of surfactants in the water as possible. The propellant was filled through the valve and the final weight of the packaged formulation recorded. In the case of the emulsions the packaged formulations were either shaken vigorously by hand or gently warmed in the hand (sonication where necessary) to induce an emulsion.
The surfactants used for these formulations are a Span85/AOT blend and the Synperonics L64.

A short description of data set [2]: Microemulsion formation / appearance of formulations in HFA227. Type of data set: physicochemical. Conditions: 10% surfactant, 20% EtOH, HFA 227, 5% w/w water. How it is done:
as §1, with “emulsion. For the microemulsion formulations the same method was used except the ethanol was added just before crimping and no sonication was required after HFA addition as a clear formulation was obtained immediately.” for “emulsion.”
The following table 3 lists the various microemulsion formulations prepared with Synperonic L64, AOT, and the fluorinated surfactant Zonyl FSN. L64 and Zonyl FSN produced clear systems.

Where a name gives a salt, the structure may show the parent alone.

With `CN1CCc2cccc3c2[C@H]1Cc1ccc(O)c(O)c1-3` [Apomorphine Hydrochloride, apomorphine hydrochloride], the “Comment (emulsion formation)” value in data set [1] (0.1% Span85, 0.05% AOT) is listed as “Emulsion”; in data set [1] (0.4% Span85, 0.05% AOT), “Emulsion”. The “Emulsion formation, HFA 134a” value in data set [1] (0.1% Synperonic L64), in data set [1] (0.5% Synperonic L64) and in data set [1] (1% Synperonic L64) was “Emulsion” each time. The “Emulsion formation, HFA 227” value in data set [1] (0.1% Synperonic L64), in data set [1] (0.5% Synperonic L64) and in data set [1] (1% Synperonic L64) was “Emulsion” in each case.

Regarding sodium dioctylsulpho-succinate [AOT], the “Comment (microemulsion formulation appearance)” value in data set [2] is listed as “Slight cloud, one apparent phase”.

Turning to `CCC(=O)Oc1ccc2c(c1)CC[C@@H]1[C@@H]2CC[C@]2(C)[C@@H](OC(=O)CC)CC[C@@H]12` [Oestradiol Dipropionate, oestradiol dipropionate], the “Comment (emulsion formation)” value in data set [1] (0.1% Span85, 0.01% AOT) was “Emulsion”; in data set [1] (0.1% Span85, 0.05% AOT), “Emulsion”. Besides, the “Emulsion formation, HFA 134a” value in data set [1] (0.1% Synperonic L64), in data set [1] (0.5% Synperonic L64) and in data set [1] (1% Synperonic L64) was “Emulsion” throughout. Further, the “Emulsion formation, HFA 227” value in data set [1] (0.5% Synperonic L64) and in data set [1] (1% Synperonic L64) was “Immediate emulsion” in each case.

(Values after patent US20060165603A1, “Solubilisation of drugs in hfa propellant by means of emulsions” (Chiesi Farmaceutici S.p.A., priority 2002, published 2006).)
